Reference: ChEMBL document CHEMBL1201862, “PubChem BioAssay data set” (2004)
Active and inactive are the calls of the source. Cut-off read from the data, not from the text of the source: actives have a measured IC50 and inactives only a lower limit.

Target: Envelope glycoprotein gp160 (Human immunodeficiency virus 1, UniProt Q6QLK5)
Assay: cell-free HIV fusion peptide-binding blockers – biochemical, uHTS, fluorescence dequenching, […] (AID 1986)

Sequence of Envelope glycoprotein gp160 (Q6QLK5 whole entry, the tested form may be a part): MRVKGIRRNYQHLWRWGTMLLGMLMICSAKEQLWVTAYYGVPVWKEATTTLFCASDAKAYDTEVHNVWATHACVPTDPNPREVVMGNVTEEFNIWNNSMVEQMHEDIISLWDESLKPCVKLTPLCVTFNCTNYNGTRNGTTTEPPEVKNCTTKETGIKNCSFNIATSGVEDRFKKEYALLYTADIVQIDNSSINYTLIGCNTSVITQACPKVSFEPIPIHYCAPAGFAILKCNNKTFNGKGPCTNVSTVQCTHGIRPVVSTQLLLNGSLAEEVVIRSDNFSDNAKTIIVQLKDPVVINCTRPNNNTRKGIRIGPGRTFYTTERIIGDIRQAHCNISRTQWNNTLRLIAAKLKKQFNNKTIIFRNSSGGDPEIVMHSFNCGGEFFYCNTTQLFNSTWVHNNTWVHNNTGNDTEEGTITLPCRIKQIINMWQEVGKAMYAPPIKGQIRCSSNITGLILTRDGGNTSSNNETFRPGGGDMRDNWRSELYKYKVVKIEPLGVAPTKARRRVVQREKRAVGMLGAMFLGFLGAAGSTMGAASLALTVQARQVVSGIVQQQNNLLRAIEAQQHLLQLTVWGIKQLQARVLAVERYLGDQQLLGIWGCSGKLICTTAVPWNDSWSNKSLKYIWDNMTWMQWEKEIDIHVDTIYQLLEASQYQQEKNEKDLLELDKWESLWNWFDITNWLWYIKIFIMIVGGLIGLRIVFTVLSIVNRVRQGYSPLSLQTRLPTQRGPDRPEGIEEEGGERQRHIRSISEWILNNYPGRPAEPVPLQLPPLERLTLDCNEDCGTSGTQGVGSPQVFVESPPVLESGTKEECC

**Q.** Cc1ccc(S(=O)(=O)NC2=NC(=O)/C(=C/c3cc([N+](=O)[O-])ccc3O)S2)cc1 was tested. Which IC50 did it give?
**A.** 13.5 µM (active)

**Q.** For O=C(Nc1ccc(Br)cc1C(=O)O)c1ccc2c(c1)C(=O)N(Cc1ccccc1)C2=O, which IC50 is on record?
**A.** 13.5 µM (active)

**Q.** For CCc1nnc(NS(=O)(=O)c2ccc(N/C=C(\C=O)c3nc4cc(Cl)ccc4o3)cc2)s1, which IC50 is on record?
**A.** 19.7 µM (active)

**Q.** For Cc1cc(/C=c2\sc3nc4ccccc4n3c2=O)c(C)n1-c1ccc(C(=O)O)cc1, which IC50 is on record?
**A.** 25.8 µM (active)
